The values that follow come from patent publication US10722514B2 (FLX Bio, Inc., priority 2017, dated 2020).

Molecules are shown by their SMILES. Where a name gives a salt, the structure may show the parent alone.

The target of the first assay is T1, recombinant full-length USP7 (Homo sapiens, UniProt Q93009).
T1 construct: A 25 μl reaction volume containing recombinant full-length USP7 (62 pM)
T1 sequence (Q93009 whole entry): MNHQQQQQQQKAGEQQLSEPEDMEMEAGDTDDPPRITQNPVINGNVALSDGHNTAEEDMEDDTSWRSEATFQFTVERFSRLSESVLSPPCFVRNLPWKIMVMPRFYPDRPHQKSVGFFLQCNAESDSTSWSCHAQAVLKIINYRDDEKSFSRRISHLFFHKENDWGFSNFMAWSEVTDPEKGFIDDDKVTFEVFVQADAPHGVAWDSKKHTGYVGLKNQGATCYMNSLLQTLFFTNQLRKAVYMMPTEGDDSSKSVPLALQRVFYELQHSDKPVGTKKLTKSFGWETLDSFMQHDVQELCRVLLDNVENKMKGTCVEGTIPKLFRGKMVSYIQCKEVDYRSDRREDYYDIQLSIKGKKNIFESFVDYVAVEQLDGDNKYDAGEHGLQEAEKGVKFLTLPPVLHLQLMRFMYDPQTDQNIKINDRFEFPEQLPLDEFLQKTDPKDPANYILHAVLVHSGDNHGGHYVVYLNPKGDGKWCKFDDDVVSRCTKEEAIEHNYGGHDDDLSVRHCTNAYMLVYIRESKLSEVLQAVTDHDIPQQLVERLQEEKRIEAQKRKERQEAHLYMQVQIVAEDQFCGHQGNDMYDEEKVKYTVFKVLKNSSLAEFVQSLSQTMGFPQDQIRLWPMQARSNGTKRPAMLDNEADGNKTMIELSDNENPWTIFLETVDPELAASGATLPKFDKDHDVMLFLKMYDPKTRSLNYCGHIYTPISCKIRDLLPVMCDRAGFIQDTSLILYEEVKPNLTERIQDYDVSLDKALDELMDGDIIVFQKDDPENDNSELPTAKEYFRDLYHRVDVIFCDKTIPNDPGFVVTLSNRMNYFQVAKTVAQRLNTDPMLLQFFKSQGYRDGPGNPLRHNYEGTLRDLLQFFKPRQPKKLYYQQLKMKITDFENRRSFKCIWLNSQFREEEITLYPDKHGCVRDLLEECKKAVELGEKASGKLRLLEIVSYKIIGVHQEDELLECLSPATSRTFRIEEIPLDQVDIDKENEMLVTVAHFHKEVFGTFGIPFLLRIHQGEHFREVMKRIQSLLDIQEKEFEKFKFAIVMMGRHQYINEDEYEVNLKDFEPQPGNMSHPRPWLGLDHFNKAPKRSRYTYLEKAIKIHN
The assay can be described thus: USP7-mediated ubiquitin-rhodamine cleavage assay. The format is biochemical. The settings on record: recombinant full-length USP7 62 pM; ubiquitin-rhodamine 100 nM; 30-minute incubation with compound, 1 hour reaction at room temperature; read-out: Potency: USP7 IC50. A digest of the protocol: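 Compounds are first incubated with 62 pM enzyme for 30 min at room temperature in pH 7.3 HEPES buffer containing TCEP and BSA. Cleavage of 100 nM ubiquitin-rhodamine proceeds for 1 h before an acid quench, and IC50 is derived from fluorescence.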
In the case of `Cc1cc(Cl)cc(-c2ccnc3cc(CN4C(=O)C5C(C4=O)C5(C)C)sc23)c1O[C@@H]1C[C@@H]2C[C@H]1N(C)C2` (stereo partly drawn) [Example 333, 3-[[7-[5-chloro-3-methyl-2-[[(1S,4R,5R)-3-methyl-3-azabicyclo[2.2.1]heptan-5-yl]oxy]phenyl]thieno[3,2-b]pyridin-2-yl]methyl]-6,6-dimethyl-3-azabicyclo[3.1.0]hexane-2,4-dione], the IC50 was < 1 µM.
As for `Cc1cc(Cl)cc(-c2ccnc3cc(CO)sc23)c1OCC1CNC1` [Example 19, (7-(2-(Azetidin-3-ylmethoxy)-5-chloro-3-methylphenyl)thieno[3,2-b]pyridin-2-yl)methanol], the IC50 is 1 to 10 µM.
In the case of `Cc1cc(Cl)cc(-c2ccnc3cc(Cn4c(=O)ccn(C5COC5)c4=O)sc23)c1O[C@H]1CCCNC1` [Example 5, (S)-3-((7-(5-Chloro-3-methyl-2-(piperidin-3-yloxy)phenyl)thieno[3,2-b]pyridin-2-yl)methyl)-1-(oxetan-3-yl)pyrimidine-2,4(1H,3H)-dione], the IC50 is < 1 µM.
Regarding `Cc1cc(Cl)cc(-c2ncnc3cc(CN4C(=O)CSC4=O)sc23)c1O[C@H]1CCCNC1` [Example 250, (S)-3-((4-(5-Chloro-3-methyl-2-(piperidin-3-yloxy)phenyl)thieno[3,2-d]pyrimidin-6-yl)methyl)thiazolidine-2,4-dione], the IC50 was < 1 µM.
Regarding `Cc1cc(Cl)cc(-c2ccnc3c(F)c(CN4C(=O)CCC4=O)sc23)c1O[C@@H]1CNC[C@@H]1F` [Example 65, 1-((7-(5-Chloro-2-(((3R,4S)-4-fluoropyrrolidin-3-yl)oxy)-3-methylphenyl)-3-fluorothieno[3,2-b]pyridin-2-yl)methyl)pyrrolidine-2,5-dione], the IC50 was < 1 µM.
Still for that read-out and setting: next, `CC(=O)NCc1cc2nccc(-c3cc(Cl)cc(C)c3O[C@H]3CCCNC3)c2s1` [Example 263, (S)—N-((7-(5-Chloro-3-methyl-2-(piperidin-3-yloxy)phenyl)thieno[3,2-b]pyridin-2-yl)methyl)acetamide]: 1 to 10 µM; `Cc1cc(Cl)cc(-c2ccnc3cc(CO)sc23)c1O[C@H]1C[C@H]2CC[C@@H](C1)N2` [Example 193, (7-(2-(((1R,3r,5S)-8-Azabicyclo[3.2.1]octan-3-yl)oxy)-5-chloro-3-methylphenyl)thieno[3,2-b]pyridin-2-yl)methanol]: 1 to 10 µM.
`Cc1cc(C#N)cc(-c2ccnc3ccsc23)c1OCC1(C#N)CNC1` [Example 9, 3-((4-Cyano-2-methyl-6-(thieno[3,2-b]pyridin-7-yl)phenoxy)methyl)azetidine-3-carbonitrile]: the IC50 is < 1 µM.
In the case of `Cc1cc(Cl)cc(-c2ccnc3cc(CN4C(=O)CCC4=O)sc23)c1OC1CNC(C)(C)C1` (stereo not shown) [Example 130, 1-((7-(5-Chloro-2-((5,5-dimethylpyrrolidin-3-yl)oxy)-3-methylphenyl)thieno[3,2-b]pyridin-2-yl)methyl)pyrrolidine-2,5-dione], the IC50 was < 1 µM.
As to `Cc1cc(Cl)cc(-c2ncnc3cc(CN4C(=O)C5CC5C4=O)sc23)c1O[C@@H]1CN(C)C[C@@H]1F` (stereo partly drawn) [Example 353, 3-[[4-[5-chloro-2-[(3R,4S)-4-fluoro-1-methyl-pyrrolidin-3-yl]oxy-3-methyl-phenyl]thieno[3,2-d]pyrimidin-6-yl]methyl]-3-azabicyclo[3.1.0]hexane-2,4-dione dihydrochloride], the IC50 was < 1 µM.
For `Cc1cc(Cl)cc(-c2ncnc3cc(CN4C(=O)COC4=O)sc23)c1OC1CCNCC1` [Example 225, 3-((4-(5-Chloro-3-methyl-2-(piperidin-4-yloxy)phenyl)thieno[3,2-d]pyrimidin-6-yl)methyl)oxazolidine-2,4-dione], the IC50 is 1 to 10 µM.
Still for that read-out and setting: the figure for `Cc1cc(Cl)cc(-c2ccnc3ccsc23)c1OC1CCNC1=O` (stereo not shown) [Example 79, 3-(4-chloro-2-methyl-6-(thieno[3,2-b]pyridin-7-yl)phenoxy)pyrrolidin-2-one] is > 30 µM; for `Cc1cc2nccc(-c3cc(Cl)cc(C)c3OCC3CNC3)c2s1` [Example 37, 7-(2-(Azetidin-3-ylmethoxy)-5-chloro-3-methylphenyl)-2-methylthieno[3,2-b]pyridine] it is 1 to 10 µM.
With `Cc1cc(Cl)cc(-c2ccnc3cc(CN4C(=O)CCC4=O)sc23)c1O[C@@H]1CCNC[C@@H]1F` [Example 209, 1-((7-(5-Chloro-2-(((3S,4R)-3-fluoropiperidin-4-yl)oxy)-3-methylphenyl)thieno[3,2-b]pyridin-2-yl)methyl)pyrrolidine-2,5-dione], the IC50 is < 1 µM.
Turning to `Cc1cc(Cl)cc(-c2ccnc3cc(CO)sc23)c1OC1C[C@@H]2C[C@H](C1)N2` (stereo partly drawn) [Example 190, (7-(2-(((1R,5S)-6-Azabicyclo[3.1.1]heptan-3-yl)oxy)-5-chloro-3-methylphenyl)thieno[3,2-b]pyridin-2-yl)methanol], the IC50 lay in the range of 10 to 30 µM.
`Cc1cc(Cl)cc(-c2ccnc3cc(CN4C(=O)CCC4=O)sc23)c1O[C@@H]1CNCC[C@@H]1C` [Example 243, 1-((7-(5-Chloro-3-methyl-2-(((3S,4S)-4-methylpiperidin-3-yl)oxy)phenyl)thieno[3,2-b]pyridin-2-yl)methyl)pyrrolidine-2,5-dione]: the IC50 was < 1 µM.
Take `Cc1cc(Cl)cc(-c2ccnc3cc(CN4C(=O)CCC4=O)sc23)c1O[C@H]1CC[C@H](N2CCC2)C1` [Example 157, 1-((7-(2-(((1S,3S)-3-(Azetidin-1-yl)cyclopentyl)oxy)-5-chloro-3-methylphenyl)thieno[3,2-b]pyridin-2-yl)methyl)pyrrolidine-2,5-dione]: the half-inhibitory concentration (IC50) was < 1 µM.
With `O=C1CNC(=O)N1Cc1cc2ncnc(-c3cccc(OC(F)(F)F)c3)c2s1` [Example 403, 3-[[4-[3-(trifluoromethoxy)phenyl]thieno[3,2-d]pyrimidin-6-yl]methyl]imidazolidine-2,4-dione], the IC50 fell in the range of 1 to 10 µM.

The assay is the same for the next values; noted with them: recombinant full-length USP7 62 pM; ubiquitin-rhodamine 100 nM; 30-minute incubation, 1 hour reaction at room temperature; read-out: Potency (USP7 IC50).
As for `Cc1cc(Cl)cc(-c2ccnc3cc(CN4C(=O)CN(CC(F)(F)F)C4=O)sc23)c1O[C@H]1CCCNC1` [Example 693, 3-[[7-[5-chloro-3-methyl-2-[[(3S)-3-piperidyl]oxy]phenyl]thieno[3,2-b]pyridin-2-yl]methyl]-1-(2,2,2-trifluoroethyl)imidazolidine-2,4-dione; 2,2,2-trifluoroacetic acid], the IC50 is < 1 µM.
Same read-out and setting: next, `Cc1cc(Cl)cc(-c2ccnc3cc(Cn4c(=O)ccn(CC(F)(F)F)c4=O)sc23)c1OC1CCC(O)CC1` (stereo not shown) [Example 677, 3-[[7-[5-chloro-2-(4-hydroxycyclohexoxy)-3-methyl-phenyl]thieno[3,2-b]pyridin-2-yl]methyl]-1-(2,2,2-trifluoroethyl)pyrimidine-2,4-dione]: < 1 µM.

The same assay, now with this note: recombinant full-length USP7 62 pM; ubiquitin-rhodamine 100 nM; 30-minute pre-incubation, 1 hour reaction at room temperature; read-out: Potency (USP7 IC50).
Regarding `Cc1cc(Cl)cc(-c2ccnc3cc(CN4C(=O)CCC4=O)sc23)c1O[C@H]1CCCN(C)C1` [Example 448, 1-[[7-[5-chloro-3-methyl-2-[[(3S)-1-methyl-3-piperidyl]oxy]phenyl]thieno[3,2-b]pyridin-2-yl]methyl]pyrrolidine-2,5-dione], the IC50 is < 1 µM.
For `Cc1cc(C(F)(F)F)cc(-c2ccnc3cc(Cn4c(=O)[nH]cc(C)c4=O)sc23)c1O[C@@H]1CNC[C@@H]1F` [Example 434, 3-[[7-[2-[(3R,4S)-4-fluoropyrrolidin-3-yl]oxy-3-methyl-5-(trifluoromethyl)phenyl]thieno[3,2-b]pyridin-2-yl]methyl]-5-methyl-1H-pyrimidine-2,4-dione], the IC50 is < 1 µM.
Consider `Cc1cc(Cl)cc(-c2ccnc3cc(Cn4c(=O)ccn(CC(F)(F)F)c4=O)sc23)c1OC1C=CCNC1` (stereo not shown) [Example 631, 3-[[7-[5-chloro-3-methyl-2-(1,2,3,6-tetrahydropyridin-3-yloxy)phenyl]thieno[3,2-b]pyridin-2-yl]methyl]-1-(2,2,2-trifluoroethyl)pyrimidine-2,4-dione], for which the IC50 was < 1 µM.
For `Cc1cc(Cl)cc(-c2ccnc3cc(Cn4c(=O)ccn(CC(F)(F)F)c4=O)sc23)c1O[C@@H]1C=C[C@@H](N)C1` [Example 630, 3-[[7-[2-[(1S,4S)-4-aminocyclopent-2-en-1-yl]oxy-5-chloro-3-methyl-phenyl]thieno[3,2-b]pyridin-2-yl]methyl]-1-(2,2,2-trifluoroethyl)pyrimidine-2,4-dione], the IC50 was < 1 µM.
Regarding `Cc1cc(Cl)cc(-c2ccnc3cc(Cn4c(=O)ccn(C)c4=O)sc23)c1OC1CC(N2CCOCC2)C1` (stereo not shown) [Example 516], the IC50 is < 1 µM.
Consider `Cc1cc(Cl)cc(-c2ccnc3cc(Cn4c(=O)ccn(C)c4=O)sc23)c1O[C@H]1CNC[C@H](C)C1` [Example 537, 3-[[7-[5-chloro-3-methyl-2-[[(3R,5R)-5-methyl-3-piperidyl]oxy]phenyl]thieno[3,2-b]pyridin-2-yl]methyl]-1-methyl-pyrimidine-2,4-dione], for which the 50% inhibitory concentration (IC50) is < 1 µM.
As for `Cc1cc(Cl)cc(-c2ncnc3cc(Cn4c(=O)ccn(C)c4=O)sc23)c1O[C@H]1CCCNCC1` [Example 582, 3-[[4-[2-[(4S)-azepan-4-yl]oxy-5-chloro-3-methyl-phenyl]thieno[3,2-d]pyrimidin-6-yl]methyl]-1-methyl-pyrimidine-2,4-dione], the IC50 was < 1 µM.
For the compound `CC(=O)N1CC[C@@H](Oc2c(C)cc(Cl)cc2-c2ccnc3cc(Cn4c(=O)ccn(CC(F)(F)F)c4=O)sc23)[C@@H](C)C1` [Example 607, 3-[[7-[2-[[(3S,4R)-1-acetyl-3-methyl-4-piperidyl]oxy]-5-chloro-3-methyl-phenyl]thineo[3,2-b]pyridin-2-yl]methyl]-1-(2,2,2-trifluoroethyl)pyrimidine-2,4-dione], the IC50 was < 1 µM.

As usually defined, the IC50 is the point on the concentration scale where inhibition reaches its midpoint.
